According to PubChem BioAssay AID330 (DTP/NCI, 2004):
“And” between values parts separate entries of the source, which are not always exact repeats. Equal entries are not always repeated. Toxic doses and inconclusive results are not listed.

System: P388 leukemia ip, CD2F1 mice, survival T/C
Assay: NCI In Vivo Anticancer Drug Screen. Data for tumor model P388 Leukemia (intraperitoneal) in CD2F1 (CDF1) mice
Conditions: endpoint: median survival time, higher = longer survival
Description: The antitumor activity of compounds was measured in mice bearing transplantable tumors. Survival or tumor size were measured and the results are expressed as the measurement made in the treated group (T) divided by the measurement made in the vehicle treated control group (C). The tumor model used in this assay is P388 Leukemia (intraperitoneal) in CD2F1 (CDF1) mice

[1] = dose: 50.0 mg/kg/injection, schedule: Q01DX005 (ip), vehicle: Klucel (hydroxypropylcellulose) (HPC)
[2] = dose: 100.0 mg/kg/injection, schedule: Q01DX005 (ip), vehicle: Klucel (hydroxypropylcellulose) (HPC)
[3] = dose: 200.0 mg/kg/injection, schedule: Q01DX005 (ip), vehicle: Klucel (hydroxypropylcellulose) (HPC)
[4] = dose: 100.0 mg/kg/injection, schedule: Q04DX002 (ip), vehicle: saline with Tween-80
[5] = dose: 200.0 mg/kg/injection, schedule: Q04DX002 (ip), vehicle: saline with Tween-80
[6] = dose: 50.0 mg/kg/injection, schedule: Q01DX009 (ip), vehicle: saline with Tween-80
[7] = dose: 100.0 mg/kg/injection, schedule: Q01DX009 (ip), vehicle: saline with Tween-80
[8] = dose: 100.0 mg/kg/injection, schedule: Q04DX003 (ip), vehicle: saline
[9] = dose: 200.0 mg/kg/injection, schedule: Q04DX003 (ip), vehicle: saline
[10] = dose: 400.0 mg/kg/injection, schedule: Q04DX003 (ip), vehicle: saline
[11] = dose: 50.0 mg/kg/injection, schedule: Q01DX005 (ip), vehicle: saline
[12] = dose: 60.0 mg/kg/injection, schedule: Q01DX005 (ip), vehicle: Klucel (hydroxypropylcellulose) (HPC)
[13] = dose: 120.0 mg/kg/injection, schedule: Q01DX005 (ip), vehicle: Klucel (hydroxypropylcellulose) (HPC)
[14] = dose: 240.0 mg/kg/injection, schedule: Q01DX005 (ip), vehicle: Klucel (hydroxypropylcellulose) (HPC)
[15] = dose: 100.0 mg/kg/injection, schedule: Q04DX002 (ip), vehicle: saline
[16] = dose: 200.0 mg/kg/injection, schedule: Q04DX002 (ip), vehicle: saline
[17] = dose: 6.25 mg/kg/injection, schedule: Q01DX009 (ip), vehicle: saline with Tween-80
[18] = dose: 25.0 mg/kg/injection, schedule: Q01DX009 (ip), vehicle: saline with Tween-80
[19] = dose: 50.0 mg/kg/injection, schedule: Q01DX009 (ip), vehicle: saline
[20] = dose: 100.0 mg/kg/injection, schedule: Q01DX009 (ip), vehicle: saline
[21] = dose: 50.0 mg/kg/injection, schedule: Q01DX005 (ip), vehicle: saline with Tween-80
[22] = dose: 100.0 mg/kg/injection, schedule: Q01DX005 (ip), vehicle: saline with Tween-80
[23] = dose: 200.0 mg/kg/injection, schedule: Q01DX005 (ip), vehicle: saline with Tween-80

SMILES: C=CC(=O)NC(CSCc1ccccc1)C(=O)O (stereo unspecified)
- T/C [1]: 98 % of control
- T/C [2]: 109 % of control
- T/C [3]: 98 % of control

SMILES: Nc1ccc(C(=O)Oc2ccc(OC(=O)c3ccc(N)cc3)cc2)cc1
- T/C (dose: 25.0 mg/kg/injection, schedule: Q01DX001 (ip), vehicle: Klucel (hydroxypropylcellulose) (HPC)): 99 % of control
- T/C (dose: 50.0 mg/kg/injection, schedule: Q01DX001 (ip), vehicle: Klucel (hydroxypropylcellulose) (HPC)): 96 % of control
- T/C (dose: 100.0 mg/kg/injection, schedule: Q01DX001 (ip), vehicle: Klucel (hydroxypropylcellulose) (HPC)): 101 % of control

SMILES: CCOC(=O)c1cccc([N+](=O)[O-])c1C(=O)OCCN(CC)CC
- T/C [4]: 100 % of control
- T/C [5]: 122 % of control

SMILES: O=C([O-])CC(=O)[O-].[Cu+2].[OH3+].[OH3+]
- T/C (dose: 15.0 mg/kg/injection, schedule: Q01DX005 (ip), vehicle: Klucel (hydroxypropylcellulose) (HPC)): 99 % of control

SMILES: C[n+]1noc([O-])c1-c1ccccc1
- T/C [6]: 102 % of control
- T/C [7]: 104 % of control

SMILES: CCOC(=O)/C=C/C(=O)O.CCOC(=O)/C=C/C(=O)O.[Mn].[NH-]CC(=O)O
- T/C [8]: 96 % of control
- T/C [9]: 96 % of control
- T/C [10]: 98 % of control

SMILES: c1ccc2c(N3CCCCC3)ncnc2c1
- T/C [11]: 107 % of control
- T/C (dose: 100.0 mg/kg/injection, schedule: Q01DX005 (ip), vehicle: saline): 100 % of control

SMILES: CC1SCC(=O)N1c1nncs1 (stereo unspecified)
- T/C (dose: 30.0 mg/kg/injection, schedule: Q01DX005 (ip), vehicle: Klucel (hydroxypropylcellulose) (HPC)): 101 % of control and 104 % of control
- T/C [12]: 102 % of control and 106 % of control
- T/C [13]: 106 % of control and 123 % of control
- T/C [14]: 123 % of control
- T/C (dose: 480.0 mg/kg/injection, schedule: Q01DX005 (ip), vehicle: Klucel (hydroxypropylcellulose) (HPC)): 162 % of control

SMILES: COC(=O)C1=C2c3cc4c(cc3CCN2C2(O)c3c(ccc(OC)c3OC)C(=O)C12C(=O)OC)OCO4 (stereo unspecified)
- T/C (dose: 50.0 mg/kg/injection, schedule: Q04DX002 (ip), vehicle: saline with Tween-80): 96 % of control
- T/C [4]: 103 % of control
- T/C [5]: 96 % of control

SMILES: O=NNc1nccs1
- T/C (dose: 1.56 mg/kg/injection, schedule: Q01DX009 (ip), vehicle: water): 96 % of control
- T/C (dose: 3.12 mg/kg/injection, schedule: Q01DX009 (ip), vehicle: water): 100 % of control
- T/C (dose: 6.25 mg/kg/injection, schedule: Q01DX009 (ip), vehicle: water): 99 % of control
- T/C (dose: 12.5 mg/kg/injection, schedule: Q01DX009 (ip), vehicle: water): 97 % of control

SMILES: NNC(=O)CCC(=O)NN
- T/C [15]: 101 % of control
- T/C [16]: 96 % of control

SMILES: CCCCC(CC)C(=O)[O][Sn]([CH2]CCC)([CH2]CCC)[O]C(=O)C(CC)CCCC (stereo unspecified)
- T/C (dose: 1.5 mg/kg/injection, schedule: Q01DX009 (ip), vehicle: saline sonified): 104 % of control
- T/C (dose: 3.0 mg/kg/injection, schedule: Q01DX009 (ip), vehicle: saline sonified): 95 % of control
- T/C (dose: 6.0 mg/kg/injection, schedule: Q01DX009 (ip), vehicle: saline sonified): 118 % of control

SMILES: COc1cc2c(cc1OC)C(Cc1ccsc1)NCC2 (stereo unspecified)
- T/C (dose: 50.0 mg/kg/injection, schedule: Q04DX002 (ip), vehicle: Klucel (hydroxypropylcellulose) (HPC)): 102 % of control
- T/C (dose: 100.0 mg/kg/injection, schedule: Q04DX002 (ip), vehicle: Klucel (hydroxypropylcellulose) (HPC)): 100 % of control

SMILES: Cc1cc2nc3n(c2cc1C)C(=O)c1cc2ccccc2cc1-3
- T/C (dose: 3.12 mg/kg/injection, schedule: Q01DX009 (ip), vehicle: saline with Tween-80): 97 % of control
- T/C [17]: 94 % of control
- T/C [18]: 88 % of control

SMILES: CCOC(=O)CNC(=O)/C=C\C(=O)NC(=O)OCC
- T/C (dose: 3.7 mg/kg/injection, schedule: Q01DX009 (ip), vehicle: saline with Tween-80): 110 % of control
- T/C (dose: 7.5 mg/kg/injection, schedule: Q01DX009 (ip), vehicle: saline with Tween-80): 107 % of control

SMILES: COc1ccc(OC(C)C(=O)O)cc1 (stereo unspecified)
- T/C [1]: 101 % of control
- T/C [2]: 98 % of control
- T/C [3]: 95 % of control

SMILES: CC(=O)NC(C(=O)N1CCCC1)=C(C)C
- T/C [15]: 100 % of control
- T/C [16]: 98 % of control
- T/C (dose: 400.0 mg/kg/injection, schedule: Q04DX002 (ip), vehicle: saline): 107 % of control

SMILES: O=C1CSC(=S)N1c1ccc(F)cc1
- T/C (dose: 50.0 mg/kg/injection, schedule: Q01DX009 (ip), vehicle: suspension in saline): 106 % of control
- T/C (dose: 100.0 mg/kg/injection, schedule: Q01DX009 (ip), vehicle: suspension in saline): 100 % of control
- T/C (dose: 200.0 mg/kg/injection, schedule: Q01DX009 (ip), vehicle: suspension in saline): 90 % of control

SMILES: NC1=C(O)C(=O)C(c2ccc(C3OC(N)=C(O)C3=O)cc2)O1 (stereo unspecified)
- T/C [12]: 101 % of control
- T/C [13]: 104 % of control
- T/C [14]: 96 % of control

SMILES: CC1C/C=C\COC(=O)CC(C)(C)CC1=O (stereo unspecified)
- T/C [8]: 99 % of control
- T/C [9]: 99 % of control
- T/C [10]: 95 % of control

SMILES: CCOc1c(OC)cc(C2c3cc4c(c(OCC)c3CC3COC(=O)C32)OCO4)cc1OC (stereo unspecified)
- T/C (dose: 12.5 mg/kg/injection, schedule: Q01DX005 (ip), vehicle: Klucel (hydroxypropylcellulose) (HPC)): 94 % of control
- T/C (dose: 25.0 mg/kg/injection, schedule: Q01DX005 (ip), vehicle: Klucel (hydroxypropylcellulose) (HPC)): 91 % of control
- T/C [1]: 86 % of control
- T/C [2]: 97 % of control

SMILES: CN(C)C1=NC(N(C)C)=C2C=C(C(C)(C)C)C=C12
- T/C [12]: 101 % of control
- T/C [13]: 101 % of control

SMILES: O=C(O)c1c[nH]c2cc(OCCc3ccccc3)ccc2c1=O
- T/C [19]: 101 % of control
- T/C [20]: 107 % of control
- T/C (dose: 200.0 mg/kg/injection, schedule: Q01DX009 (ip), vehicle: saline): 107 % of control

SMILES: CCN(CC)CCOc1ccc(/C(=C(\Cl)c2ccccc2)c2ccccc2)cc1
- T/C (dose: 3.13 mg/kg/injection, schedule: Q01DX009 (ip), vehicle: saline with Tween-80): 96 % of control
- T/C [17]: 119 % of control
- T/C (dose: 12.5 mg/kg/injection, schedule: Q01DX009 (ip), vehicle: saline with Tween-80): 117 % of control
- T/C [18]: 122 % of control
- T/C [21]: 93 % of control
- T/C [6]: 104 % of control
- T/C [22]: 96 % of control
- T/C [23]: 93 % of control

SMILES: O=C1c2ccccc2C(=O)c2c1c(O)c1cccnc1c2O
- T/C [21]: 103 % of control
- T/C [22]: 100 % of control
- T/C [23]: 95 % of control

SMILES: NNC(=O)c1ccc(Cl)cc1
- T/C [18]: 91 % of control
- T/C [6]: 96 % of control
- T/C [7]: 96 % of control
- T/C (dose: 200.0 mg/kg/injection, schedule: Q01DX009 (ip), vehicle: saline with Tween-80): 86 % of control

SMILES: CC(/C=C/C1OC(=O)C=CC1C)=C\C(C)C/C=C/C(C)=C/C(CO)C(=O)C(C)C(O)C(C)C/C(C)=C/C(=O)O (stereo unspecified)
- T/C (dose: 25.0 micrograms/kg/injection, schedule: Q01DX005 (ip), vehicle: other): 119 % of control
- T/C (dose: 100.0 micrograms/kg/injection, schedule: Q01DX005 (ip), vehicle: other): 153 % of control

SMILES: CCOC(=O)c1c(N)sc2c1CCC2
- T/C (dose: 100.0 mg/kg/injection, schedule: Q01DX001 (ip), vehicle: saline sonified): 100 % of control
- T/C (dose: 200.0 mg/kg/injection, schedule: Q01DX001 (ip), vehicle: saline sonified): 95 % of control
- T/C (dose: 400.0 mg/kg/injection, schedule: Q01DX001 (ip), vehicle: saline sonified): 100 % of control

SMILES: CC(=O)C(C)C(C)=NCCN=C(C)C(C)C(C)=O (stereo unspecified)
- T/C [1]: 110 % of control
- T/C [2]: 110 % of control
- T/C [3]: 103 % of control

SMILES: CCN(CC)CCCNc1nccc2c(OC)cccc12
- T/C (dose: 25.0 mg/kg/injection, schedule: Q01DX005 (ip), vehicle: saline): 93 % of control
- T/C [11]: 89 % of control

SMILES: COc1ccc(CC(N)c2ccccc2)cc1 (stereo unspecified)
- T/C [19]: 96 % of control
- T/C [20]: 98 % of control
